“Also recorded” adds a separate entry of the source.
Columns and labels:
[1] = Iron saturation by ICP-AES; type: physicochemical
Description: The skilled person will appreciate that transferrin iron saturation levels can be readily determined without undue burden by quantifying the total iron levels in a sample having a known transferrin concentration. The total iron levels in sample can be measured by any one of a number of methods know by those of skill in the art. Suitable examples include: • Colorimetric assays—Iron is quantitated by measuring the intensity of the violet complex formed in the reaction between ferrozine and Fe^2+ in acetate buffer at 562 nm. Thiourea or other chemicals can be added to complex contaminant metals such Cu^2+, which can also bind with ferrozine and yield falsely elevated iron values. See Ceriotti et al., Improved direct specific determination of serum iron and total iron-binding capacity Clin Chem. 1980, 26(2), 327-31, the contents of which are incorporated herein by reference. • Inductively Coupled Plasma Atomic Emission Spectroscopy (ICP-AES)—is an emission spectroscopy technique that quantifies the mass percentage of metals in a sample. ICP-AES is based on the excitation of metal atoms/ions in the sample using a plasma (an ionized gas consisting of positive ions and free electrons) and analyzing the emission wavelength of the electromagnetic radiation, which is typical of that particular metal. Even though the technique is a standard analytical technique within common general knowledge of the skilled person, further information on ICP-AES can be found in Manley et al., Simultaneous Cu-, Fe-, and Zn-specific detection of metalloproteins contained in rabbit plasma by size-exclusion chromatography-inductively coupled plasma atomic emission spectroscopy. J Biol Inorg Chem. 2009, 14, 61-74, the contents of which are incorporated herein by reference.
The preferred method of determining the iron content of a sample for the purposes of the therapeutic method of the present invention is ICP-AES. The iron saturation of transferrin is then calculated based on the transferrin protein concentration, total iron content of the sample, and the fact that wild type transferrin has two iron-binding sites. Wild type human transferrin (molecular weight 79,750) can bind two iron atoms such that a sample containing 1 g of transferrin would be 100% saturated by 1.4 mg of iron.
Protein purity was determined by SDS-PAGE. Iron saturation levels were determined using ICP-AES in accordance with the procedures outlined in Manley et al., J Biol Inorg Chem (2009) 14:61-74, the contents of which are incorporated herein by reference.

[2] = test system: primary human brain cortex-derived neural progenitor cells; experiment: Differentiation of primary human neural progenitor cells (β-III-tubulin / GFAP staining); type: cell-based; conditions: 0.8 mg/mL, 72 hours
Protocol: Neural progenitor cells maintained as neurospheres were obtained from Lonza (PT-2599). Cells were thawed from a frozen vial of neurospheres and cultured in Human NeuroCult™ NS-A Complete Proliferation media (Stemcell Technologies) for 2 weeks. Neurospheres were dissociated to single cells and plated in Laminin coated wells of assay plates. The neural progenitor cells were seeded in NeuroCult™ NS-A Basal media containing 1/10th concentration of the recommended proliferation supplements, in the absence or presence of ApoTf (0.8 mg/mL) for 72 hours. At the time of analysis, cells were fixed with paraformaldehyde, stained for β-III-tubulin (R&D Systems, MAB1195) and GFAP (Invitrogen, PA3-16727), and imaged on a Molecular Devices Nano imaging instrument. Image analysis was performed by assessing the relative numbers of cells staining positive for β-III-tubulin or GFAP. Values for the indicated conditions are shown with standard deviations as “% β-III-Tubulin Positive” cells (FIG. 2A) or “% GFAP Positive” cells (FIG. 2B).

HIF-1α = conditions: reported in US2016008437; cited from earlier work
rat model of stroke = conditions: vs control rats; cited from earlier work
[3] = test system: C57BL/6J mice with transient MCAo; experiment: Neuroscore recovery after transient MCAo; type: in vivo, mouse; conditions: FIG. 10A, 3-14 days after MCAo, vs saline
Protocol: (§1) C57BL/6J mice (ca. 20 g) were anaesthetized under isoflurane and, after dissection, a 6.0 silicon-coated monofilament suture was inserted into the external carotid artery to occlude the middle cerebral artery (MCAo). The occlusion was carried out for 60 minutes under temperature control.
(§2) Only animals with a ‘neuroscore’ of 4 or greater were considered for further testing (n=8-10 animals/group). At six hours post-occlusion, mice were injected daily with 350 mg/kg of Apo-transferrin (i.p.) or an equal volume of saline for a total of seven days, as well as with 50 mg/kg Bromodeoxyuridine (BrdU; Sigma-Aldrich Chemical, St. Louis, Mo.), both articles delivered by intraperitoneal administration. Weight changes were monitored daily.
Mice were prepared as indicated in Example 9 above and were subjected to assessments at 3 days and 1, 2, 3, 4 weeks post-MCAo, as indicated (n=8-10 animals/group). Motor coordination (i.e. equilibrium behavior and locomotor ability as a function of cortico-striatal function) was assessed using a rotarod test. Learning and memory capacity were measured using the NORT (novel object recognition test; for example, Anglada-Huguet et al., 2014, Molecular Neurobiology, vol. 49, pages 784-795; Denninger et al., 2018, J. Vis. Exp., vol. 141, e58593). […]

[4] = test system: C57BL/6J mice with transient MCAo; experiment: Rotarod test after transient MCAo; type: in vivo, mouse; conditions: FIG. 10B, vs saline
Protocol: as §1, §2
(§3) Mice were prepared as indicated in Example 9 above and were subjected to assessments at 3 days and 1, 2, 3, 4 weeks post-MCAo, as indicated (n=8-10 animals/group). Motor coordination (i.e. equilibrium behavior and locomotor ability as a function of cortico-striatal function) was assessed using a rotarod test. Learning and memory capacity were measured using the NORT (novel object recognition test; for example, Anglada-Huguet et al., 2014, Molecular Neurobiology, vol. 49, pages 784-795; Denninger et al., 2018, J. Vis. Exp., vol. 141, e58593).
The time that it takes an animal to fall (Latency to fall) from the rotarod is shown vs time after MCAo. […]

[5] = test system: C57BL/6J mice with transient MCAo; experiment: Novel object recognition test (NORT) after transient MCAo; type: in vivo, mouse; conditions: FIG. 10C, at least two weeks, vs saline
Protocol: as §1, §2, §3
The time that it takes an animal to fall (Latency to fall) from the rotarod is shown vs time after MCAo. The motor skills of the mice reflect those of the neuroscore in FIG. 10A, with an increased rate of improvement in motor/balance skills, as measured by the amount of time animals stayed on the rotarod apparatus. […] The Discrimination (%) is a description of an animal's memory, as measured by the percentage of time in which an animal investigates newly presented objects compared to the time they investigate previously presented objects. Animals with better cognition and memory spend more time with the novel object due to memories of the object previously presented to the animal; this is shown as increased % Discrimination.

apo-transferrin: iron-free form of transferrin protein, obtained and purified from pooled human plasma
Iron Saturation (%) [1]: < 0.3%
% β-III-Tubulin Positive cells (neurons) ([2]; FIG. 2A): dramatically increases the percentage of cells differentiated to neurons; also recorded: induces primary human neural progenitor cells to become β-III-tubulin protein positive neurons
% GFAP Positive cells (astrocytes) ([2]; FIG. 2B): dramatically increases; also recorded: GFAP protein positive astrocytes cells
HIF-1α production (HIF-1α): can induce HIF-1α production
volume of the infarcted area (neuroprotective effect) (rat model of stroke): decrease in the volume of the infarcted area
rate of recovery (percentage of animals with neuroscore 0) [3]: quicker recovery
rate of recovery (percentage of animals with neuroscore 0) ([3]; listed as ApoTf): significantly improves the rate at which the animals recover
motor and balance skills (Latency to fall from rotarod) [4]: better motor skills; also recorded: increased motor and balance skills
motor and balance skills (Latency to fall from rotarod) ([4]; listed as apoTf): better overall abilities to remain on the rotarod
learning recognition / Discrimination (%) in NORT [5]: higher cognition
learning recognition / Discrimination (%) in NORT ([5]; listed as ApoTf): increases learning recognition functions
learning recognition / Discrimination (%) in NORT ([5]; listed as apoTf): higher ‘percent Discrimination’
